What was measured:
[1] = system: inflammatory cytokines (IL-6, IL-12 and TNF-α) in the serum; experiment: Serum inflammatory cytokines by ELISA after single intraperitoneal administration of ODN to mice; assay type: in vivo; settings: Balb/c mouse; for IL-6 concentration in the serum / IL-12 concentration in the serum / TNF-α concentration in the serum: 10 nmol ODN in 400 μl saline, 2 hours later, mean; for Induction of inflammatory cytokines (in words): 10 nmol ODN, serum 2 hours later
Method: 10 nmol of each of GATC-dA (sequence containing a GATC sequence), GATC-m^6A (sequence containing a Gm^6ATC sequence), CpG-ODN1668 (sequence containing a non-methylated CpG sequence) and GpC-ODN1720 (sequence containing a […]) shown in Table 1 was collected, and dissolved in 400 μl of a physiological saline solution. The resulting solution was intraperitoneally administered to a Balb/c mouse (male, 6 weeks old; Sankyo Labo-Service). Two hours later, concentrations of inflammatory cytokines (IL-6, IL-12 and TNF-α) in the serum were measured by an enzyme-linked immunosorbent assay (ELISA; AN'ALIZA, Genzyme TECHNE corp.).
Two hours after the administration, the blood was collected from the heart of the mouse, and allowed to stand overnight at 4° C. The serum was collected therefrom by centrifugation (20,000 g, 20 minutes, 4° C.).
By the way, the results shown in FIGS. 1 to 3 are expressed in terms of a mean value±standard deviation. In the graphs, two asterisks indicate “P<0.01”, and three asterisks “P<0.005 (n=3 (IL-12), 4 (IL-6, TNF-α)))”.

[2] = system: inflammatory cytokines in the serum of the mouse; experiment: Serum inflammatory cytokines by ELISA after simultaneous administration of Gm^6ATC sequence and non-methylated CpG sequence to mice; assay type: in vivo; settings: 5 nmol CpG-ODN1668 alone or mixed with equimolar second ODN, 400 μl saline, 2 hours later, mean (n=4)
Method: Accordingly, the Gm^6ATC sequence and CpG-ODN1668 containing the non-methylated sequence were simultaneously administered to a mouse to confirm an effect of inducting inflammatory cytokines. Regarding the doses of Gm^6ATC, GATC-dA and CpG-ODN1668, 5 nmol of CpG-ODN1668 was mixed with an equimolar amount of Gm^6ATC or GATC-dA, and the mixture was dissolved in 400 μl of a physiological saline solution. The resulting solution was administered to a mouse. Two hours later, the inflammatory cytokines in the serum of the mouse were measured by ELISA to confirm induction amounts.
The results shown in FIGS. 4 to 6 are expressed in terms of a mean value±standard deviation (n=4). In the graphs, one asterisk indicates “P<0.05”, two asterisks “P<0.01” and three asterisks “P<0.005”.

GpC-ODN1720: phosphothioate-stabilized oligonucleotide, non CpG motif, CC ATG AGC TTC CTG ATG CT (DNA CCATGAGCTTCCTGATGCT; phosphorothioate backbone, chemistry not fully specified)
IL-6 concentration in the serum [1]: 28 pg/mL
IL-12 concentration in the serum [1]: 33 pg/mL
TNF-α concentration in the serum [1]: 47 pg/mL
Induction of inflammatory cytokines (in words) [1]: little induced

CpG-ODN1668: phosphothioate-stabilized oligonucleotide, non-methylated CpG motif, TCCATGACGTTCCTGATGCT (DNA TCCATGACGTTCCTGATGCT; phosphorothioate backbone, chemistry not fully specified)
IL-6 concentration in the serum [1]: 2100 pg/mL
IL-12 concentration in the serum [1]: 1000 pg/mL
TNF-α concentration in the serum [1]: 1500 pg/mL
Induction of inflammatory cytokines (in words) [1]: very strong inflammatory cytokines were induced
IL-6 concentration in the serum [2]: 530 pg/mL
IL-12 concentration in the serum [2]: 730 pg/mL
TNF-α concentration in the serum [2]: 760 pg/mL

GATC-dA: phosphothioate-stabilized oligonucleotide, non-m^6A motif, TCCATGATCTTCCTGATGCT (DNA TCCATGATCTTCCTGATGCT; phosphorothioate backbone, chemistry not fully specified)
IL-6 concentration in the serum [1]: 14 pg/mL
IL-12 concentration in the serum [1]: 48 pg/mL
TNF-α concentration in the serum [1]: 92 pg/mL

— patent publication US20070161585A1, “Immunopotentiator and method for enhancing immunoactivity using the same” (priority 2003, published 2007)
